Structures are written as SMILES. Entries after “also recorded” stand apart in the source; their conditions may differ.

For data set [1], the system named is human WERI-Rb1 retinoblastoma xenografts (vitreous seeds). Description: rabbit model of retinoblastoma vitreous seeds, intravitreal treatment, quantification of seed burden. To be noted: for reduction in tumor cells / tumor burden compared to saline: 3 weekly intravitreal injections (belinostat 350 μg; melphalan 25 μg), eyes harvested two weeks after final injection. The format is in vivo. As to the method:
(§1) For the first small animal IAC model developed by the inventors and referenced above, the rabbit's dominant ophthalmic artery was endovascularly cannulated, and each drug was injected at various doses. For intravitreal experiments, 1-3 weekly injections of each drug were performed. For the assessment of ocular toxicity described above, the testing platform the inventors developed included a broad array of tests including assessment of retinal structure and function by electroretinography, photography, fluorescein angiography, OCT, and OCT-Angiography, both before and after treatment. Human WERI-Rb1 retinoblastoma xenografts were treated with either intravenous, intra-arterial, or intravitreal chemotherapy. Assessment of efficacy against vitreous seeds was by both direct quantification of seed burden (vitreous harvesting and cell counting) and by assessment of apoptosis induction by immunohistochemistry.
To determine efficacy and toxicity of intravitreal HDAC inhibitors for retinoblastoma treatment, vitreous seeds were generated in cyclosporine-immunosuppressed rabbits. 1,000,000 human WERI-Rb1 human retinoblastoma cells were injected into each eye. The seeds were allowed to grow for two weeks to form the types of “spherules” seen clinically with vitreous seeds. 350 μg belinostat injections were used (equivalent to approximately 700 μg in a human-sized eye). The right eye was injected with belinostat three times, weekly. The left eye was injected with saline three times, weekly. The eyes were harvested for analysis two weeks after the final injection, and subjected to the cell quantification and apoptosis induction assays described in the above paragraph.
To compare the efficacy of an embodiment of the present invention with melphalan treatment, rabbit eyes were treated with 3 weekly injections of 350 μg belinostat by local (intravitreal) injection as described above. The melphalan comparator group received 3 weekly injections of 25 μg melphalan (the clinically-used dose) by intravitreal injection. Eyes were harvested two weeks after the final injection. […]

Data set [2] has as its system rabbit eye (retinal function). In words: retinal function by electroretinography after intravitreal injections. The class given is in vivo. How it is done:
as §1
We next wanted to use the toxicity assessment platform that we have developed previously (described above) to compare the toxicity of belinostat (in accordance with the present invention) to current standard-of-care melphalan. As with the efficacy experiments, rabbits received either 3 injections (weekly) of belinostat 350 μg (the effective dose in our rabbit model), or else belinostat 700 μg (double the clinically-effective dose in our rabbit model), or else melphalan 25 μg (the current, clinically-used dose).

For a further data set, the system named is rabbit eye (retina). In words: retinal histopathology after intravitreal injections. The format is in vivo. To be noted: 3 weekly intravitreal injections; belinostat 350 μg or 700 μg; melphalan 25 μg. How it is done:
as §1
The retina looks just as healthy as the saline-treated control eye.

For data set [3] the following is noted: intra-arterial melphalan, patients; cited from earlier work.
The subject of data set [4] is human retinoblastoma cells. Description: killing of human retinoblastoma cells in cell culture. The conditions noted are these: for killing of human retinoblastoma cells by a brief pulse of HDAC inhibitor: brief pulse exposure, multiple concentrations. The format is cell-based. How it is done:
(§2) The present inventors have additionally determined the pharmacokinetics of belinostat when injected directly into the vitreous of the rabbit eye and have calculated its intraocular half-life in vivo. […] Specifically, once the PK curve of intravitreally-injected belinostat was determined and the half-life calculated, human retinoblastoma cells were incubated in cell culture in media containing varying concentrations of belinostat for a length of time equivalent to 5 intraocular half-lives, the media was then replaced with belinostat-free media and incubated for 7 days, and the number of surviving cells was then determined. Then, as an example, the present inventors back-calculated the initial intravitreal injection dose that would ensure that a concentration equal to or above the in vitro IC90 would be achieved even out to 5 half-lives, in vivo.

The nature of data set [5]: intraocular pharmacokinetics after local administration. The format is in vivo, rabbit. To be noted: local administration routes (intravitreal, intra-arterial). How it is done:
as §2

For `N[C@@H](Cc1ccc(N(CCCl)CCCl)cc1)C(=O)O` [melphalan], the “reduction in tumor cells / tumor burden compared to saline” value in data set [1] was found to be 93%. Further, in data set [2] (intravitreal injection, dose not given), the “retinal toxicity or structural damage” value was “retinal structural damage”. The “reduction in measured retinal function (electroretinography amplitudes)” value in data set [2] (intravitreal melphalan 25 μg, 3 weekly injections, across all parameters measured) is 66-90%. Moreover, the “retinal architecture on histopathology” value in the data set on rabbit eye (retina) is “severe atrophy of the retina; also recorded: evidence of retinal degeneration”. In addition, the rates of complications in data set [3] was ~40%.
Take `Cc1[nH]c2ccccc2c1CCNCc1ccc(/C=C/C(=O)NO)cc1` [panobinostat]: the “killing of human retinoblastoma cells by a brief pulse of HDAC inhibitor” value (shortened to “killing … of HDAC inhibitor”) in data set [4] is “can be killed by exposure to a brief pulse”.
As to `O=C(/C=C/c1cccc(S(=O)(=O)Nc2ccccc2)c1)NO` [belinostat, N hydroxy-3-(3-phenylsulfamoyl-phenyl)-acrylamide], in data set [1] (350 μg belinostat intravitreal, three times weekly, vs saline-treated left eye), the “response of vitreous tumor seeds (photographs, FIG. 1)” value was “eradication of retinoblastoma vitreous seeds”. Also, in data set [1], the “reduction in tumor cells / tumor burden compared to saline” value is recorded as 95%. The “ERG parameters (retinal function)” value in data set [2] (intravitreal belinostat 700 μg (double the clinically-effective dose), 3 weekly injections) is given as “only mild worsening of ERG parameters”. Moreover, in data set [2] (rabbit, in vivo), the “retinal functional loss and toxicity (A wave and B wave amplitude, FIG. 3)” value is on record as “(absence of) retinal functional loss”; the “retinal toxicity or structural damage” value is listed as “no such retinal toxicity or structural damage”. In addition, the “retinal architecture on histopathology” value with rabbit eye (retina) is “retained normal retinal architecture and healthy-appearing retina; also recorded: no evidence of retinal degeneration”. Further, in data set [4], the “killing … of HDAC inhibitor” value is recorded as “can be killed by exposure to a brief pulse”. In addition, in data set [4] (in vitro), the “killing of human retinoblastoma cells in vitro” value is recorded as “effective for killing human retinoblastoma cells in vitro”. Besides, in data set [5], the intraocular concentrations entry is reported as “very high intraocular concentrations, but of very brief duration”.
Take `Nc1ccccc1NC(=O)c1ccc(CNC(=O)OCc2cccnc2)cc1` [etinostat]: the “killing … of HDAC inhibitor” value in data set [4] was “can be killed by exposure to a brief pulse”.

The values above are taken from patent US20220008365A1, “Treating Intraocular Retinoblastoma with Inhibitors of Histone Modification” (Vanderbilt University, priority 2018, published 2022).
